Assay results: ChEMBL document CHEMBL1142443, “Design and synthesis of reboxetine analogs morpholine derivatives as selective norepinephrine reuptake inhibitors” (Bioorg Med Chem Lett, 2008)

What was measured:
[1] = molecular target: Sodium-dependent serotonin transporter (Homo sapiens) (UniProt P31645); test: Binding affinity at SERT
[2] = molecular target: Sodium-dependent noradrenaline transporter (Homo sapiens) (UniProt P23975); test: Binding affinity at NET
Sequence of Sodium-dependent noradrenaline transporter (Homo sapiens) (P23975 whole entry): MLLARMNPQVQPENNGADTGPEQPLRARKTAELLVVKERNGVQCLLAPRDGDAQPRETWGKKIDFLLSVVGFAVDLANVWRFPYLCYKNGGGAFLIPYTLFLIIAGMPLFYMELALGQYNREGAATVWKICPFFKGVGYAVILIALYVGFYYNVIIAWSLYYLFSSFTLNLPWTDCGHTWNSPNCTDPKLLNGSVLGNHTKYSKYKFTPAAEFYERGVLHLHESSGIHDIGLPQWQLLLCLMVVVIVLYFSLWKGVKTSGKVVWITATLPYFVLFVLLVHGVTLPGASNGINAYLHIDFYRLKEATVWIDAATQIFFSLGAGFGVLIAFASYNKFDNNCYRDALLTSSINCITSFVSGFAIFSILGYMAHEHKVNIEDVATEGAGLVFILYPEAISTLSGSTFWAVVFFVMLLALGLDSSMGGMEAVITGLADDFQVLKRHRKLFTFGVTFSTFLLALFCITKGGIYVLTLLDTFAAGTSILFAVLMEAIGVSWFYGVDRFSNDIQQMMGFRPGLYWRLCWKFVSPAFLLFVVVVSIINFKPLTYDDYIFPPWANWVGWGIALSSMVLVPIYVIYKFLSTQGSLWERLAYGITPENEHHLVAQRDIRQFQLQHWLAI

Sequence of Sodium-dependent serotonin transporter (Homo sapiens) (P31645 whole entry, looked up): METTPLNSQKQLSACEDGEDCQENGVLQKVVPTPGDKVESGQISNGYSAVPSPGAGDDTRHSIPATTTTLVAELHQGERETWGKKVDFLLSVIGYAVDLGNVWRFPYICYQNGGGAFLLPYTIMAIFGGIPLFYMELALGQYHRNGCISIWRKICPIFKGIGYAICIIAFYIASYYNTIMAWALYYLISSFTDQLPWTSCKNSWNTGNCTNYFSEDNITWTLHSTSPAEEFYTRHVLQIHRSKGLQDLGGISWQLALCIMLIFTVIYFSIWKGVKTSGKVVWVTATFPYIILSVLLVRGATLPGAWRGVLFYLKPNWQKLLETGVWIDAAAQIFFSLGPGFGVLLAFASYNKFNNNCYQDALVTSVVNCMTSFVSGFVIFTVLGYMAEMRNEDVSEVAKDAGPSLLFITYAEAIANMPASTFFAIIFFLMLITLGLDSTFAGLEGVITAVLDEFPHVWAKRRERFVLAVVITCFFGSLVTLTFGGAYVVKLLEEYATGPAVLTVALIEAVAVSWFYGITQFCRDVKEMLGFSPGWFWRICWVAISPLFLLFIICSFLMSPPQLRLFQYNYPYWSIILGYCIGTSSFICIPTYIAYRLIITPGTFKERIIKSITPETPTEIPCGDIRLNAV

Row | SMILES | Activity [1] [nM] | Activity [2] [nM]
1 | Cc1coc([C@@H](Oc2c(F)cccc2F)[C@@H]2CNCCO2)n1 | > 10000 | 6940
2 | Cc1ccc(C(C)C)c(O[C@@H](c2ccccn2)[C@@H]2CNCCO2)c1 | > 8400 | 457
3 | CCOc1ccccc1O[C@@H](c1cccnc1)[C@@H]1CNCCO1 | > 10000 | 114
4 | Fc1cccc(F)c1O[C@@H](c1ccccn1)[C@@H]1CNCCO1 | 8980 | 6
5 | CCOc1ccccc1O[C@@H](c1ncccc1C)[C@@H]1CNCCO1 | 3680 | 27
6 | Cc1coc([C@H](Oc2c(F)cccc2F)[C@@H]2CNCCO2)n1 (stereo in doubt; form 2) | > 10000 | 19
7 | Fc1cccc(F)c1O[C@@H](C1=CCCC1)[C@@H]1CNCCO1 | 3700 | 20
8 | CCOc1cccc(F)c1O[C@@H](c1ccccc1)[C@@H]1CNCCO1 | 2570 | 4
9 | CCOc1ccccc1O[C@@H](c1ccccn1)[C@@H]1CNCCO1 | 6910 | 7
10 | c1ccc([C@H](Oc2ccccc2C2CC2)[C@H]2CNCCO2)cc1 | 75 | 35
11 | Fc1cccc(F)c1O[C@@H](c1ccccc1)[C@@H]1CNCCO1 | 1210 | 7
12 | CCOc1ccccc1O[C@@H](c1ccc(CC)cn1)[C@@H]1CNCCO1 | 8210 | 49
13 | Fc1ccc(O[C@@H](c2ccccc2)[C@@H]2CNCCO2)cc1 | 1620 | 21
14 | Fc1cccc(F)c1O[C@@H](Cc1ccccc1)[C@@H]1CNCCO1 | 912 | 66
15 | Cc1coc([C@H](Oc2c(F)cccc2F)[C@@H]2CNCCO2)n1 (stereo in doubt; form 1) | > 4500 | 18
16 | Brc1ccccc1O[C@@H](c1ccccc1)[C@@H]1CNCCO1 | 477 | 3
17 | Fc1cccc(OC(c2ccccc2)C2CNCCO2)c1 (stereo not drawn) | 13 | 11
18 | Fc1cccc(F)c1O[C@H](C1=CCCC1)[C@@H]1CNCCO1 | 2530 | 2570
19 | Fc1cccc(F)c1O[C@@H](c1cccc2c1OCC2)[C@@H]1CNCCO1 | 445 | 13
20 | N#Cc1ccccc1O[C@@H](c1ccccc1)[C@@H]1CNCCO1 | > 10000 | 18
21 | Fc1cccc(F)c1O[C@@H](c1nccs1)[C@@H]1CNCCO1 | > 10000 | 19
22 | CS(=O)(=O)c1ccccc1O[C@@H](c1ccccc1)[C@@H]1CNCCO1 | > 10000 | 1360
23 | c1ccc([C@H](Oc2ccccc2C2CC2)[C@@H]2CNCCO2)cc1 | 482 | 2
24 | Brc1ccccc1O[C@@H](c1ccccc1)[C@H]1CNCCO1 | 105 | 17
25 | Fc1ccccc1O[C@@H](c1ccccc1)[C@@H]1CNCCO1 | 6390 | 7
26 | CCOc1ccccc1O[C@@H](c1cccc(OC)n1)[C@@H]1CNCCO1 | 676 | 28
27 | COc1cccc(F)c1O[C@@H](c1ccccc1)[C@@H]1CNCCO1 | > 3500 | 2
28 | Fc1ccc(O[C@@H](c2ccccc2)[C@@H]2CNCCO2)c(F)c1 | 617 | 16
29 | Fc1cccc(F)c1O[C@@H](c1ncco1)[C@@H]1CNCCO1 | > 10000 | 9
